Data from patent publication US7312225B2, “Macrocyclic pyrimidines, their production and use as pharmaceutical agents” (Bayer Schering Pharma AG, priority 2002, dated 2007).
pIC50: −log10 of the molar value. Where a name gives a salt, the structure may show the parent alone. Read-outs that look alike come from different tables or passages of the source.

Tests used:
[1] = target: T1, CDK1/CycB (Homo sapiens, UniProt P06493); assay: CDK1/CycB kinase assay; format: biochemical; conditions: Table I
T1 construct: GST; purchased ProQinase GmbH, Freiburg; host or cells: baculovirus-infected insect cells (Sf9)
T1 sequence (P06493 whole entry): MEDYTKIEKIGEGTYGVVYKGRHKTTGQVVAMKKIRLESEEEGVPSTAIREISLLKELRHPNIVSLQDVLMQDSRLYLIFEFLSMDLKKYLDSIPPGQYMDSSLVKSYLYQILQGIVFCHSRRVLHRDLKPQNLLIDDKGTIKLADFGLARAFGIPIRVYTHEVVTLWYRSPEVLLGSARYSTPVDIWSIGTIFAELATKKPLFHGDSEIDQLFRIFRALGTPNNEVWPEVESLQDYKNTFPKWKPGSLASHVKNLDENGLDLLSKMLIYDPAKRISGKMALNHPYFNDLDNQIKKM
T1 sequence (P14635 whole entry partner): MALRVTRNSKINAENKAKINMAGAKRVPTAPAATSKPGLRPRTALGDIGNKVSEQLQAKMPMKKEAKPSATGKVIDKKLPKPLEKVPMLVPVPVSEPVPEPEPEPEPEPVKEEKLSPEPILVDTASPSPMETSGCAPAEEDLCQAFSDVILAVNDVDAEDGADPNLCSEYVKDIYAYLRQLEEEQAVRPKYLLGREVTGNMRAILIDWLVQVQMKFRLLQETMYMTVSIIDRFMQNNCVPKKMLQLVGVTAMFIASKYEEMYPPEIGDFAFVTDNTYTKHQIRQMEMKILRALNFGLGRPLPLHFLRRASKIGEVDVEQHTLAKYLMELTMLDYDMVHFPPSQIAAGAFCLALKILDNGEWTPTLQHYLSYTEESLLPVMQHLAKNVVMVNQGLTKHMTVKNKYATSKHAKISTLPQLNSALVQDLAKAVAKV
Method: Recombinant CDK1- and CycB-GST fusion proteins, purified from baculovirus-infected insect cells (Sf9), were purchased from ProQinase GmbH, Freiburg. Histone IIIS, which was used as a kinase substrate, is commercially available from the Sigma Company.
CDK1/CycB (200 ng/measuring point) was incubated for 15 minutes at 22° C. in the presence of various concentrations of test substances (0 μm, as well as within the range of 0.01-100 μm) in assay buffer [50 mmol of tris/HCl, pH 8.0, 10 mmol of MgCl2, 0.1 mmol of Na ortho-vanadate, 1.0 mmol of dithiothreitol, 0.5 μm of adenosine triphosphate (ATP), 10 μg/measuring point of histone IIIS, 0.2 μCi/measuring point of 33P-gamma ATP, 0.05% NP40, 12.5% dimethyl sulfoxide]. The reaction was stopped by adding EDTA solution (250 mmol, pH 8.0, 14 μl/measuring point).
From each reaction batch, 10 μl was applied to P30 filter strips (Wallac Company), and non-incorporated 33P-ATP was removed by three washing cycles of the filter strips for 10 minutes each in 0.5% phosphoric acid. After the filter strips were dried for 1 hour at 70° C., the filter strips were covered with scintillator strips (MeltiLex™ A, Wallac Company) and baked for one hour at 90° C. The amount of incorporated 33P (substrate phosphorylation) was determined by scintillation measurement in a gamma-radiation measuring device (Wallac).

[2] = target: T2, CDK2/CycE (Homo sapiens, UniProt P24941); assay: CDK2/CycE kinase assay; format: biochemical
T2 construct: GST; purchased ProQinase GmbH, Freiburg; host or cells: baculovirus-infected insect cells (Sf9)
Method: Recombinant CDK2- and CycE-GST-fusion proteins, purified from baculovirus-infected insect cells (Sf9), were purchased from ProQinase GmbH, Freiburg. Histone IIIS, which was used as a kinase substrate, was purchased from the Sigma Company.
The reaction was stopped by adding EDTA solution (250 mmol, pH 8.0, 14 μl/measuring point).
From each reaction batch, 10 μl was applied to P30 filter strips (Wallac Company), and non-incorporated ^33P-ATP was removed by subjecting the filter strips to three washing cycles for 10 minutes each in 0.5% phosphoric acid. After the filter strips were dried for one hour at 70° C., the filter strips were covered with scintillator strips (MeltiLex™ A, Wallac Company) and baked for one hour at 90° C. The amount of incorporated ^33P (substrate phosphorylation) was determined by scintillation measurement in a gamma-radiation measuring device (Wallac).

[3] = system: MCF7; assay: Proliferation assay MCF7; format: cell-based; conditions: Homo sapiens, MCF7, 96 h, 4 days incubation, crystal violet
Source text: (§1) Cultivated human tumor cells (MCF7, […] human breast cancer cells, relative to ATCC HTB22; NCI-H460, human non-small-cell lung cancer cells, ATCC HTB-177, HCT 116, human colon cancer cells, ATCC CCL-247; DU 145, hormone-independent human prostate cancer cells, ATCC HTB-81; MaTu-MDR, hormone-independent, multiple pharmaceutical agent-resistant human breast cancer cells, EPO-GmbH, Berlin) were flattened out at a density of about 5000 cells/measuring point, depending on growth rates of the respective cells in a 96-well multititer plate in 200 μl of the corresponding growth medium. After 24 hours, the cells of one plate (zero-point plate) were colored with crystal violet (see below), while the medium of the other plates was replaced by fresh culture medium (200 μl), to which the test substances were added at various concentrations (0 μmol, as well as in the range of 0.01-30 μmol; the final concentration of the solvent dimethyl sulfoxide was 0.5%). The cells were incubated for 4 days in the presence of test substances. The cell proliferation was determined by coloring the cells with crystal violet: the cells were fixed by adding 20 μl/measuring point of an 11% glutaric aldehyde solution for 15 minutes at room temperature. After three washing cycles of the fixed cells with water, the plates were dried at room temperature. The cells were colored by adding 100 μl/measuring point of a 0.1% crystal violet solution (pH was set at 3 by adding acetic acid). After three washing cycles of the colored cells with water, the plates were dried at room temperature. The dye was dissolved by adding 100 μl/measuring point of a 10% acetic acid solution. The extinction was determined by photometry at a wavelength of 595 nm. The change of cell growth, in percent, was calculated by standardization of the measured values to the extinction values of the zero-point plate (=0%) and the extinction of the untreated (0 μm) cells (=100%).

[4] = system: H460; assay: Proliferation assay H460; format: cell-based; conditions: Homo sapiens, NCI-H460, 96 h; Table II; 4 days incubation, crystal violet
Source text: as §1

[5] = system: HCT116; assay: Proliferation assay HCT116; format: cell-based; conditions: Homo sapiens, HCT-116, 96 h; Table II; 4 days incubation, crystal violet
Source text: as §1

[6] = system: DU145; assay: Proliferation assay DU145; format: cell-based; conditions: Homo sapiens, DU-145, 96 h; Table II; 4 days incubation, crystal violet
Source text: as §1

[7] = system: MaTu-ADR; assay: Proliferation assay MaTu-ADR; format: cell-based; conditions: Homo sapiens, 96 h; Table II; 4 days incubation, crystal violet; read-out: Proliferation IC50 MaTu-ADR
Source text: as §1

[8] = target: T3, VEGF Receptor tyrosine kinase-2 (Homo sapiens, UniProt P35968); assay: VEGF Rezeptor-2 kinase assay; format: biochemical; conditions: Table I; read-out: VEGF-R2 IC50
T3 construct: GST; made in house; host or cells: baculovirus-infected insect cells (Sf9)
T3 sequence (P35968 20-1356): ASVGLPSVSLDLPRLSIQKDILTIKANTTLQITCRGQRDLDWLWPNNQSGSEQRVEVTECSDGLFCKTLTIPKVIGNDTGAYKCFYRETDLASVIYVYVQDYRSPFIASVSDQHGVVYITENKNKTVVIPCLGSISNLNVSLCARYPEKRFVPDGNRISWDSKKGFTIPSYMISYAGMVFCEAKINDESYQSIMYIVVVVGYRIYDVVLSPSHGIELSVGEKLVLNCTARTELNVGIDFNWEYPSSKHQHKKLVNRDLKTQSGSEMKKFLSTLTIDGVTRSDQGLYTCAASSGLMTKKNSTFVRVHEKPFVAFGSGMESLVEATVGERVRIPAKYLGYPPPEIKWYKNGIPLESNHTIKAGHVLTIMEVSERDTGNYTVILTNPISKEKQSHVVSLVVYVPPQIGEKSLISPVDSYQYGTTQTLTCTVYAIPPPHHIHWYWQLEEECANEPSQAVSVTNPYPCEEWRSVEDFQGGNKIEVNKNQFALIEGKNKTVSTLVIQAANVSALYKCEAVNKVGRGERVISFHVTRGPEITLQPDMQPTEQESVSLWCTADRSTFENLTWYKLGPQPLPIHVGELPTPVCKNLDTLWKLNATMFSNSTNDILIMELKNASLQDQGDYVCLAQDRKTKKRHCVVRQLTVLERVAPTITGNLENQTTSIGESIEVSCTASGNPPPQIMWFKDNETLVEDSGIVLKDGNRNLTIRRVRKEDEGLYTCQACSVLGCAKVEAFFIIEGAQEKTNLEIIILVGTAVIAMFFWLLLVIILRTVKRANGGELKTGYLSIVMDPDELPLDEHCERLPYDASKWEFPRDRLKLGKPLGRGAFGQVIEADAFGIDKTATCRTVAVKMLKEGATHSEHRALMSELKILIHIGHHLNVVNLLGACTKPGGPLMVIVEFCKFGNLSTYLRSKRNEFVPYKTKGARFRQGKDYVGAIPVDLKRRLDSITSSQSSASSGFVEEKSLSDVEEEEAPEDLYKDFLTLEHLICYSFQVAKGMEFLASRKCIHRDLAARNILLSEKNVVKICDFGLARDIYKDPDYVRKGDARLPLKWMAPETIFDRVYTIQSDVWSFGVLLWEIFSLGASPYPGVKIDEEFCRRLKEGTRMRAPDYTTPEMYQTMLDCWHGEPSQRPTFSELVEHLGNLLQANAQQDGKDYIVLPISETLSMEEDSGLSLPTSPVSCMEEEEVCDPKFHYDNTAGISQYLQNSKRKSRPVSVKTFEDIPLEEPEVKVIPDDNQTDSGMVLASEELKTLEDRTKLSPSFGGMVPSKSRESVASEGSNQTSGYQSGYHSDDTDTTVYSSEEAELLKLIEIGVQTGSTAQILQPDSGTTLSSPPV
Method: VEGF Rezeptor-2 Kinase Assay
Recombinant VEGF Receptor tyrosine kinase-2 was purified as GST-fusion protein from baculovirus-infected insect cells (Sf9). Poly-(Glu4Tyr), which was used as a kinase substrate, was purchased from the Sigma Company.
VEGF Receptor tyrosine kinase (90 ng/measuring point) was incubated for 10 minutes at 22° C. in the presence of various concentrations of test substances (0 μmol, as well as within the range of 0.001-30 μM) in 30 μl of assay buffer [40 mmol of Tris/HCl […], 10 mmol of MgCl2, 1 mmol of MnCl2, 3 μmol of Na orthovanadate, 1.0 mmol of dithiothreitol, 8 μmol of adenosine trisphosphate (ATP), 27 μg/measuring point of poly-(Glu4Tyr), 0.2 μCi/measuring point of ^33P-gamma ATP, 1% dimethyl sulfoxide]. The reaction was stopped by adding EDTA solution (250 mmol, pH 7.0, 10 μl/measuring point).
From each reaction batch, 10 μl was applied to P30 filter strips (Wallac Company), and non-incorporated 33P-ATP was removed by subjecting the filter strips to three washing cycles for 10 minutes each in 0.5% phosphoric acid. After the filter strips were dried for 1 hour at 70° C., the filter strips were covered with scintillator strips (MeltiLex™ A, Wallac Company) and baked on for 1 hour at 90° C. The amount of incorporated 33P (substrate phosphorylation) was determined by scintillation measurement in a gamma-radiation measuring device (Wallac).

[9] = Table I, read-out: CDK2/CycE IC50
[10] = Table II, read-out: Inhibition IC50 CDK2/CycE
[11] = Table II, read-out: Proliferation IC50 MCF7

pIC50 [1]	pIC50 [2, 9]	pIC50 [2, 10]	pIC50 ([3]; Table I, read-out: MCF7 IC50)	pIC50 [3, 11]	pIC50 [4]	pIC50 [5]	pIC50 [6]	pIC50 [8]	Structure (SMILES)	pIC50 [7]
6.70									O=S1(=O)NCCC(O)CNc2nc(ncc2Br)Nc2cccc1c2 (stereo not drawn) [Example 14.8]	
6.70	5.62	5.62	6.12	6.12	6.05	6.15	6.05		NS(=O)(=O)c1ccc2cc1OCCCCCNc1nc(ncc1Br)N2 [Example 14.11]	5.89
		5.62		5.40					Brc1cnc2nc1NCCCCOc1cccc(c1)N2 [Example 7.1, 1^5-Bromo-4-oxa-2,9-diaza-1(2,4)-pyrimidina-3(1,3)-benzenacyclononaphane]	
7.10	7.52		5.68					6.43	OCC1CCCOc2cccc(c2)Nc2ncc(Br)c(n2)N1 (stereo not drawn) [Example 14.18]	
	7.64		6.05					7.16	O=S1(=O)NCCC(CO)Nc2nc(ncc2Br)Nc2cccc1c2 (single isomer, unassigned) [1.3 (+) Enantiomer]	
6.70	6.38	6.38	5.96	5.96	5.74	5.89	5.70		O=S1(=O)NCCCCCNc2nc(ncc2Br)Nc2cccc1c2 [Example 1.0, 1^5-Bromo-4-thia-2,5,11-triaza-1(2,4)-pyrimidina-3(1,3)-benzenacycloundecaphane 4,4-dioxides]	6.15
7.55			6.05	6.05	6.22	6.40	5.89	7.16	O=[N+]([O-])c1cc2cc(c1)S(=O)(=O)NCCCNc1nc(ncc1Br)N2 [Example 1.5, 1^5-Bromo-3^5-nitro-4-thia-2,5,9-triaza-1(2,4)-pyrimidina-3(1,3)-benzenacyclononaphane-4,4-dioxide hydrochloride]	6.22
6.52	5.36		< 5.00						Cc1ccc2cc1S(=O)(=O)NCCCNc1nc(ncc1Br)N2 [Example 14.16]	
5.77	6.60	5.70	5.40						O=S1(=O)NCCCC[C@@H](CO)Nc2nc(ncc2Br)Nc2cccc1c2 [Example 14.4]	
		5.30							CCc1cnc2nc1NCCCCCNS(=O)(=O)c1cccc(c1)N2 [Example 14.2]	
7.30	6.80		5.80					7.05	O=S1(=O)NCCCOc2nc(ncc2Br)Nc2cccc1c2 [Example 3.0, 1^5-Bromo-9-oxa-4-thia-2,5-diaza-1(2,4)-pyrimidina-3(1,3)-benzenacyclononaphane-4,4-dioxide]	
7.40	6.29		5.59						O=S1(=O)NCC(O)CNc2nc(ncc2Br)Nc2cccc1c2 (racemic) [Example 1.2, rac-1^5-Bromo-4-thia-2,5,9-triaza-1(2,4)-pyrimidina-3(1,3)-benzenacyclononaphan-7-ol-4,4-dioxide]	
		7.64		6.05	5.68	5.85	5.40		O=S1(=O)NCCC(CO)Nc2nc(ncc2Br)Nc2cccc1c2 (single isomer, unassigned) [Example 1.3 (+) Enantiomer]	5.40
5.82	6.89	5.82	5.89	5.89	5.92	6.00	5.92		O=S1(=O)N[C@H]2CC[C@@H](CC2)Nc2nc(ncc2Br)Nc2cccc1c2 [Example 14.15]	5.89
			6.40	6.40	6.70	> 7.00	6.15	7.96	Nc1cc2cc(c1)S(=O)(=O)NCCCNc1nc(ncc1Br)N2 [Example 1.4, 1^5-Bromo-4-thia-2,5,9-triaza-1(2,4)-pyrimidina-3(1,3)-benzenacyclononaphan-3^5-amine-4,4-dioxides]	7.00
6.52									N#Cc1cnc2nc1NCCCNS(=O)(=O)c1cccc(c1)N2 [Example 5.0, 1^5-Cyano-4-thia-2,5,9-triaza-1(2,4)-pyrimidina-3(1,3)-benzenacyclononaphane 4,4-dioxide]	
7.05	6.49	6.49	6.15	6.15	6.15	6.30	5.77		O=S1(=O)NCCCCNc2nc(ncc2Br)Nc2cccc1c2 [Example 14.6]	6.52
	7.19		5.72	6.52	7.00	7.00	6.40	6.72	O=S1(=O)NCCCCNc2nc(ncc2Br)Nc2csc1c2 [Example 14.10]	
6.44	6.92		5.22						O=C1NCCCNc2nc(ncc2Br)Nc2cccc(c2)N1 [Example 10.0, 1^5-Bromo-2,4,6,10-tetraaza-1(2,4)-pyrimidina-3(1,3)-benzenacyclodecaphan-5-one]	
